Entries after “also recorded” stand apart in the source; their conditions may differ. Where two headings read alike, the source gives them in different places. Square brackets hold non-standard residues; d marks the D form. Ends that are not written are not given here. Peptide text beside a SMILES is read from it. * marks the point of attachment. Fmoc = O=C(OCC1c2ccccc2-c2ccccc21)*; Palmitoyl = CCCCCCCCCCCCCCCC(=O)*; Cha = N[C@@H](CC1CCCCC1)C(=O)O; AMC = Cc1cc(=O)oc2cc(N*)ccc12; Ahx = NCCCCCC(=O)O; Sar = CNCC(=O)O
Legend:
galanin receptors = settings: truncation of GAL(1-16) fragment; read-out: KD towards galanin receptors; cited from earlier work
hGalR2 = molecular target: T1, hGalR2 (Homo sapiens, UniProt O43603); settings: cited from earlier work
T1 sequence (O43603 1-387): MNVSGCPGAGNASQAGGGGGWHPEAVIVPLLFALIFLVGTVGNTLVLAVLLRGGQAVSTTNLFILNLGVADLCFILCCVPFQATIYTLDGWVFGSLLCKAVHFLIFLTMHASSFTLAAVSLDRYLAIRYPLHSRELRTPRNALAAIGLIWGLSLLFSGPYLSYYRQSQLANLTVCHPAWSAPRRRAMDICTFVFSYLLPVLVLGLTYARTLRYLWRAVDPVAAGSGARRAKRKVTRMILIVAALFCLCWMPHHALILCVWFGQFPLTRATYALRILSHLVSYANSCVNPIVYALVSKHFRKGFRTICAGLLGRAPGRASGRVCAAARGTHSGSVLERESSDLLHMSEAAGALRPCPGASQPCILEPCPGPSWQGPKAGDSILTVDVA

6 Hz limbic seizures = test: 6 Hz limbic (psychomotor) seizure test; format: in vivo, CF-1 mice; settings: for % Protection at 1 hour / % Protection at 2 hours / % Protection at 4 hours / % Protection at 1, 2 and 4 hours (result in words): 4 mg/kg; for % Protection at 1 hour / % Protection at 2 hours / % Protection at 4 hours / ED50 in the 6 Hz model / dose in parentheses in Table 14 (ED50) / % Protection at 1, 2 and 4 hours (result in words): i.p.; for % Protection at 1 hour: model not printed at tables, ED50s of same analogs called 6 Hz model; for dose in parentheses in Table 14 (ED50): not labelled in table
Source text: Mice not displaying limbic seizures were considered protected.

[1] = Toxicity (motor impairment) noted in the SAR screen; format: in vivo, mice; settings: 4 mg/kg, i.p.
Source text: Minimal toxicity will be identified in mice by the rotarod procedure (Dunham and Miya, 1957). When a mouse is placed on a 1-inch knurled rod that rotates at a speed of 6 r.p.m., the animal can maintain its equilibrium for long periods of time. The animal is considered toxic if it falls off this rotating rod three times during a 1-minute period.
SAR studies have been carried out in an effort to better understand structural determinants of its activity following systemic administration. […] Presence of the Lys-palm residue was insufficient to produce any observable anticonvulsant activity.

[2] = system: formalin-induced paw licking; test: Mouse formalin test; format: in vivo; settings: for Active at (flat phase II): mouse formalin assay of inflammatory pain
Procedure: An injection of 0.5% formalin is made into the planter region of a mouse right hind paw. This elicits a distinct biphasic behavioral profile characterized by the mouse licking the affected paw. Immediately following the injection the mouse licks the paw for about 10 minutes. This is phase 1 (acute) and is followed by a brief latent period where there is little behavioral activity. A more prolonged period of about 20 to 30 minutes of paw licking ensues which constitutes phase 2 (inflammatory).
Prior to the administration of the active peptide, drug or vehicle each mouse undergoes a 15-minute conditioning period in one of several 6″ tall plexiglass observation tubes (4″ diameter) that are placed in front of a mirror. […] One hour after treatment, formalin was injected sub-dermally (20 μl; 27 gauge needle) into the plantar surface of the right hind foot. The bevel of the needle is placed facing down toward the skin surface. Following the injection of the formalin each animal is observed for first 2 minutes of each 5 minute epoch for a total of 45 minutes. The cumulative length of licking for each 2 minute time period was measured. An animal receiving the requisite volume of vehicle was alternated with each mouse given GAL-BBB2, Gal 1-16, or gabapentin. Animals were euthanized following the conclusion of the experiment.
Area under the curve (AUC) determination was made using the GraphPad Prism Version 3.03. Total AUC is calculated for both the test and control groups for both the acute and inflammatory phases. The AUC for individual animals for each phase is also calculated and converted to percentage of total AUC of control. The average percentages and SEM for both the drug treated and control were calculated and tested for significant difference.

[3] = system: seizures (6 Hz limbic seizure model); settings: 4 mg/kg, i.p.
sound-induced seizures = test: Frings audiogenic seizure-susceptible mouse model; format: in vivo
Procedure: The two modified galanin analogs (GAL-BBB1 and GAL-BBB2) were administered i.p. to a group of Frings audiogenic seizure susceptible mice in a dose of 4 mg/kg. At various times after administration (i.e., 15, 30, 60, 120, and 240 min) each mouse was placed into a cylindrical test chamber fitted with an audio transducer and challenged with a high-intensity sound stimulus (110 dB, 11 KHz for 20 sec). Animals not displaying tonic hind-limb extension were considered protected. […] In a subsequent study, anticonvulsant efficacy was quantitated at the time to peak effect (i.e., 1 h) in a dose-response study.
The ability of individual modified analogs to prevent seizures induced by sound in the AGS-susceptible Frings mouse model can be assessed at the time of peak effect (White et al., 1992). For this test, individual mice are placed into a plexiglass cylinder (diameter, 15 cm; height, 18 cm) fitted with an audio transducer (Model AS-ZC; FET Research and Development, Salt Lake City, Utah), and exposed to a sound stimulus of 110 decibels (11 KHz) delivered for 20 seconds. Sound-induced seizures are characterized by wild running followed by loss of righting reflex with forelimb and hindlimb tonic extension. Mice not displaying hindlimb tonic extension are considered protected.
At various times after administration (i.e., 15, 30, 60, 120, and 240 min) each mouse was placed into a cylindrical test chamber fitted with an audio transducer and challenged with a high-intensity sound stimulus (110 dB, 11 KHz for 20 sec).

hGalR3 = molecular target: T2, hGalR3 (Homo sapiens, UniProt O60755); settings: Table 18; compiled from literature; read-out: Affinity, KD hGalR3; cited from earlier work
T2 sequence (O60755 1-368): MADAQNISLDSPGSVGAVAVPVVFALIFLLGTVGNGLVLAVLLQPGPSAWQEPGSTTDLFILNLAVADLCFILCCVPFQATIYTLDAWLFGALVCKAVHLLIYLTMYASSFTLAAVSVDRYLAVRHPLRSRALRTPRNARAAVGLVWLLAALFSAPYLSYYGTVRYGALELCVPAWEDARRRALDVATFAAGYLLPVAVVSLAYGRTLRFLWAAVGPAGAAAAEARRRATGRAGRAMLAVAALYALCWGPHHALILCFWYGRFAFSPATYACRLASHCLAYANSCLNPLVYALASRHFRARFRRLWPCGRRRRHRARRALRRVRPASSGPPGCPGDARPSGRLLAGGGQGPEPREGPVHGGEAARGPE

[4] = Table 2, reference ligands, same values as Table 18, read-out: affinity toward galanin receptors, GalR2
[5] = Table 18, compiled from literature, read-out: Affinity, KD hGalR2

CC(C)C[C@H](NC(=O)[C@H](CC(C)C)NC(=O)[C@H](Cc1ccc(O)cc1)NC(=O)CNC(=O)[C@H](C)NC(=O)[C@H](CO)NC(=O)[C@H](CC(N)=O)NC(=O)[C@H](CC(C)C)NC(=O)[C@@H](NC(=O)[C@H](Cc1c[nH]c2ccccc12)NC(=O)CN)[C@@H](C)O)C(=O)NCC(=O)O [Fragment 1-12]
Kd (galanin receptors): 3 µM

CC(C)C[C@H](NC(=O)[C@H](CC(C)C)NC(=O)[C@H](Cc1ccc(O)cc1)NC(=O)CNC(=O)[C@H](C)NC(=O)[C@H](CO)NC(=O)[C@H](CC(N)=O)NC(=O)[C@H](CC(C)C)NC(=O)[C@@H](NC(=O)[C@H](Cc1c[nH]c2ccccc12)NC(=O)CN)[C@@H](C)O)C(=O)NCC(=O)N1CCC[C@H]1C(=O)N[C@@H](Cc1c[nH]cn1)C(=O)O [Fragment 1-14]
Kd (galanin receptors): 0.15 µM

Cc1cc(=O)oc2cc(NC(=O)[C@H](CCCCN)NC(=O)[C@H](CC3CCCCC3)NC(=O)OCC3c4ccccc4-c4ccccc43)ccc12 [Galnon] (Fmoc-[Cha]-Lys-{AMC})
Kd (hGalR2; [4]): 24 µM
Kd (hGalR2; [5]): 24 µM

CC[C@@H](C(N)=O)N1CCCC1=O [Levetiracetam, reference compound]
maximum protection against 6 Hz limbic seizures (6 Hz limbic seizures; 6 Hz (44 mA), 1000 mg/kg, alone): ≤ 50%

CNCC(=O)N[C@@H](Cc1c[nH]c2ccccc12)C(=O)N[C@H](C(=O)N[C@@H](CC(C)C)C(=O)N[C@@H](CC(N)=O)C(=O)N[C@@H](CO)C(=O)N[C@@H](C)C(=O)NCC(=O)N[C@@H](Cc1ccc(O)cc1)C(=O)N[C@@H](CC(C)C)C(=O)N[C@@H](CC(C)C)C(=O)NCC(=O)N1CCC[C@H]1C(=O)N[C@@H](CCCCN)C(=O)N[C@@H](CCCCN)C(=O)N[C@@H](CCCCN)C(=O)N[C@@H](CCCCN)C(N)=O)[C@@H](C)O [NAX 1105-2]
% Protection at 1 hour (6 Hz limbic seizures): 30%
% Protection at 2 hours (6 Hz limbic seizures): 0%
% Protection at 4 hours (6 Hz limbic seizures): 0%
ED50 in the 6 Hz model (6 Hz limbic seizures): 3.8 mg/kg
dose in parentheses in Table 14 (ED50) (6 Hz limbic seizures): 3.7 mg/kg
toxicity (motor impairment) [1]: toxicity (motor impairment); also recorded: toxic

CCCCCCCCCCCCCCCC(=O)NCCCC[C@H](NC(=O)[C@H](CCCCN)NC(=O)[C@H](CCCCN)NC(=O)[C@H](CCCCN)NC(=O)[C@H](CCCCN)NC(=O)[C@H](CC(C)C)NC(=O)[C@H](CC(C)C)NC(=O)[C@H](Cc1ccc(O)cc1)NC(=O)CNC(=O)[C@H](C)NC(=O)[C@H](CO)NC(=O)[C@H](CC(N)=O)NC(=O)[C@H](CC(C)C)NC(=O)[C@@H](NC(=O)[C@H](Cc1c[nH]c2ccccc12)NC(=O)CNC)[C@@H](C)O)C(=O)N[C@@H](CCCCN)C(N)=O [NAX 1205-4] (H-[Sar]WTLNSAGYLLKKKKK(Palmitoyl)K-NH2)
toxicity (motor impairment) [1]: toxic

(Sar)WTLNSAGY(Ahx)KK(Lys-P)K [NAX 306-4]
% Protection at 1 hour (6 Hz limbic seizures): 50%
% Protection at 2 hours (6 Hz limbic seizures): 0%
% Protection at 4 hours (6 Hz limbic seizures): 0%
ED50 in the 6 Hz model (6 Hz limbic seizures): 2.95 mg/kg
dose in parentheses in Table 14 (ED50) (6 Hz limbic seizures): 2.95 mg/kg
activity in second response phase of inflammatory pain assay ([2]; 2.95 mg/kg): very active
Active at (flat phase II) [2]: 2.9 mg/kg (“flat phase II”)

(Sar)WTLNSAGYKK(Lys-P)K [NAX 306-3]
Active at (flat phase II) [2]: 2.7 mg/kg (“flat phase II”)

(Sar)WTLNSAGYLLGPDKDK(Lys-P)DK (XWTLNSAGYLLGPXXXX; N-terminal Sar; C-terminal (Lys-P)DK; MOD_RES 1 Xaa = MeGly; VARIANT 14, 15, 17 Xaa = D-Lys; MOD_RES 16 Xaa = Lys-palm) [NAX 1205-2]
% Protection at 1 hour (6 Hz limbic seizures): 100%
% Protection at 2 hours (6 Hz limbic seizures): 50%
% Protection at 4 hours (6 Hz limbic seizures): 75%
ED50 in the 6 Hz model (6 Hz limbic seizures): 1.2 mg/kg
dose in parentheses in Table 14 (ED50) (6 Hz limbic seizures): 1.2 mg/kg

(Sar)WTLNSAGYLLGPHA(Lys-P) [306-5]
% Protection at 1, 2 and 4 hours (result in words) (6 Hz limbic seizures): Not active

(Sar)WTLNSAGYLLGPRR(Lys-P)R [NAX 1205-3]
% Protection at 1 hour (6 Hz limbic seizures): 100%
% Protection at 2 hours (6 Hz limbic seizures): 75%
% Protection at 4 hours (6 Hz limbic seizures): 0%

DPhe-Cys-Phe-DTrp-Lys-Thr-Cys-Thr-NH2 [DPhe-Cys-Phe-DTrp-Lys-Thr-Cys-Thr-N2, reference compound]
% Protection at 30 min [3]: 50%

GWTLNSAGY [Fragment 1-9]
Kd (galanin receptors): 100 µM

GWTLNSAGYL [Fragment 1-10]
Kd (galanin receptors): 25 µM

GWTLNSAGYLLGPHAV [Gal(1-16), reference compound]
% Protection at 1, 2 and 4 hours (result in words) (6 Hz limbic seizures): Not active
anticonvulsant activity (sound-induced seizures; 20 mg/kg i.p.): inactive
Kd (hGalR2; [4]): 0.0083 µM
Kd (hGalR2; [5]): 0.0083 µM
Kd (hGalR3): 0.0065 µM
activity in formalin test ([2]; 20 mg/kg i.p.): inactive

Lys-Lys-Lys(palm)-Lys-Ahx-DPhe-Cys-Phe-DTrp-Lys-Thr-Cys-Thr-NH2
% Protection at 30 min [3]: 100%

Sar-Trp-Thr-Leu-Asn-Ser-Ala-Gly-Tyr-Leu-Leu-Gly-Pro-His-(Lys-palm)-Tle-NH2 [GAL-BBB1]
anticonvulsant activity (sound-induced seizures; 4 mg/kg i.p., 15-240 min, also higher dose of 12 mg/kg): not active at any time point tested

WAGGDFSGE [DSIP, reference compound]
activity against 6 Hz (22 mA) limbic seizures (6 Hz limbic seizures; administered directly into the ventricular space, 22 mA): effective
% Protection at 30 min [3]: 0%

WTLNSAGYLLGPKK(Lys-P)K (not fully specified (C-terminus)) [NAX 1205-1]
% Protection at 1 hour (6 Hz limbic seizures): 50%
% Protection at 2 hours (6 Hz limbic seizures): 50%
% Protection at 4 hours (6 Hz limbic seizures): 0%
ED50 in the 6 Hz model (6 Hz limbic seizures): 5.7 mg/kg
dose in parentheses in Table 14 (ED50) (6 Hz limbic seizures): 5.7 mg/kg

[Ahx]GGWAGGDFSGE
% Protection at 30 min [3]: 50%
% Protection after 2 hours ([3]; 2 hours): (100% after

— US20180340012A1, “METHODS AND CO[…] TO IMPROVING PROPERTIES OF PHARMACOLOGICAL AGENTS TARGETING NERVOUS SYSTEM” (University of Utah Research Foundation, priority 2006, published 2018)
